Values of other authors as cited in patent US20120237592A1, “ENDOPLASMIC RETICULUM TARGETING LIPOSOMES” (priority 2008, published 2012).

Assays:
BVDV = conditions: literature
HIV = conditions: literature
HBV = conditions: literature
HIV-1 = HIV-1 infected patients, literature

SMILES: CCCCN1C[C@H](O)[C@@H](O)[C@H](O)[C@H]1CO [NB-DNJ, N-butyl-1,5-dideoxy-1,5-imino-D-glucitol]
- infectivity of BVDV viral progeny (BVDV): decreased infectivity of viral progeny
- infectious virus released from HIV-infected cells (HIV): greatly reduced
- secretion of HBV particles (HBV): suppresses secretion of HBV particles
- tolerability at concentrations necessary for antiviral activity (HIV-1): serious side-effects
